Source: patent US20240158446A1, “CYCLIC COMPOUND HAVING SELECTIVE INHIBITORY ACTION ON KRAS OVER HRAS AND NRAS” (CHUGAI SEIYAKU KABUSHIKI KAISHA, priority 2021, published 2024)

Experiments:
[1] = biological target: GDP-bound NRAS wild-type protein (Homo sapiens, UniProt P01111); test: Binding to NRAS by surface plasmon resonance (SPR), Single Cycle Kinetics; conditions: SPR; GDP-bound NRAS wild-type protein vs GDP-bound KRAS wild-type protein; KD ratio class
[2] = biological target: GDP-bound HRAS wild-type protein (Homo sapiens, UniProt P01112); test: Binding to HRAS by surface plasmon resonance (SPR), Single Cycle Kinetics; conditions: SPR; GDP-bound HRAS wild-type protein vs GDP-bound KRAS wild-type protein; KD ratio class
Sequence of GDP-bound HRAS wild-type protein (P01112 whole entry): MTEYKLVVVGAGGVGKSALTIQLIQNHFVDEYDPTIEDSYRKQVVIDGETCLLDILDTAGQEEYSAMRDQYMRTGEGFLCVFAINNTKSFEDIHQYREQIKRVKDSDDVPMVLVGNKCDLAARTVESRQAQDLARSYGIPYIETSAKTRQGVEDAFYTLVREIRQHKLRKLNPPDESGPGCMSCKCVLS

[3] = tested on: human lung cancer strain NCI-H441;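 note: cell proliferation inhibition after four days measured by CellTiter-Glo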
[4] = biological target: GDP-bound KRAS wild-type protein (Homo sapiens, UniProt P01116); test: Binding to KRAS by surface plasmon resonance (SPR), Single Cycle Kinetics; conditions: SPR, Single Cycle Kinetics, 1:1 binding model; GDP-bound KRAS wild-type protein; read-out: KRAS KD
Sequence of GDP-bound KRAS wild-type protein (P01116 whole entry): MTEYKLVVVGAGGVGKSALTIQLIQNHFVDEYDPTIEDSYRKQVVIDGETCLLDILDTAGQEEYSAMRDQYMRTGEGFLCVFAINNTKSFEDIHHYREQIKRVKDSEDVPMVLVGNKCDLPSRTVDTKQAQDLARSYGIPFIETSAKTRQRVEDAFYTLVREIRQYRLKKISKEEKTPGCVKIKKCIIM

Sequence of GDP-bound NRAS wild-type protein (P01111 whole entry): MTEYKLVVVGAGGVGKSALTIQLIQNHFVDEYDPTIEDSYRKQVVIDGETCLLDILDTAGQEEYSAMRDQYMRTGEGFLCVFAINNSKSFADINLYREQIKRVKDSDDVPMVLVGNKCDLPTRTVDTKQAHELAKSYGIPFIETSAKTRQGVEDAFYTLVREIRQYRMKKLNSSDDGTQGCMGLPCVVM

| Compound | NRAS/KRAS (ratio of KD value for NRAS to KD value for KRAS) [1] | HRAS/KRAS (ratio of KD value for HRAS to KD value for KRAS) [2] | IC50 [3] [nM] | Kd [4] [nM] |
| --- | --- | --- | --- | --- |
| CCO[C@@H]1C[C@H]2C(=O)NC3(CCOCC3)C(=O)N(C)[C@@H](C3CCCC3)C(=O)N(C)[C@H](C(=O)N(C)C)CC(=O)N(C)[C@@H](CC)C(=O)N[C@@H]([C@@H](C)CC)C(=O)N(C)CC(=O)N(C)[C@H]3C/C=C\CCN(C3=O)[C@@H](Cc3ccc(C(F)(F)F)cc3)C(=O)N(C)CC(=O)N[C@@H](CCc3cc(F)c(C(F)(F)F)c(F)c3)C(=O)N2C1 [PP1279] | A (a compound having 10 or more and less than 20 is denoted as A) | A (a compound having 10 or more and less than 20 is denoted as A) | 72.6 | 0.27 |
| CCO[C@@H]1C[C@H]2C(=O)NC(C)(C)C(=O)N(C)[C@@H](C3CCCC3)C(=O)N(C)[C@H](C(=O)N(C)C)CC(=O)N(C)[C@@H](CC)C(=O)N[C@@H]([C@@H](C)CC)C(=O)N(C)CC(=O)N(C)[C@H]3C/C=C\CCN(C3=O)[C@@H](Cc3ccc(C(F)(F)F)cc3)C(=O)N(C)CC(=O)N[C@@H](CCc3cc(F)c(C(F)(F)F)c(F)c3)C(=O)N2C1 [PP1280] | A (a compound having 10 or more and less than 20 is denoted as A) | A (a compound having 10 or more and less than 20 is denoted as A) | 34.4 | 0.15 |
| CCO[C@@H]1C[C@H]2C(=O)NC3(CCC3)C(=O)N(C)[C@@H](C3CCCC3)C(=O)N(C)[C@H](C(=O)N3CCOCC3)CC(=O)N(C)[C@@H](CC)C(=O)N[C@@H]([C@@H](C)CC)C(=O)N(C)CC(=O)N(C)[C@H]3C/C=C\CCN(C3=O)[C@@H](Cc3ccc(C(F)(F)F)cc3)C(=O)N(C)CC(=O)N[C@@H](CCc3ccc(C(F)(F)F)c(Cl)c3)C(=O)N2C1 [PP1281, (2S,8S,12R,14S,20S,23S,27S,30S,36S,38Z)-8-[2-[3-chloro-4-(trifluoromethyl)phenyl]ethyl]-20-cyclopentyl-12-ethoxy-27-ethyl-4,19,22,26,32,35-hexamethyl-30-[(1S)-1-methylpropyl]-23-(morpholine-4-carbonyl)-2-[[4-(trifluoromethyl)phenyl]methyl]spiro[1,4,7,10,16,19,22,26,29,32,35-undecazatricyclo[34.5.1.0^10,14]dotetracont-38-ene-17,1′-cyclobutane]-3,6,9,15,18,21,25,28,31,34,42-undecone] | AA (a compound having 20 or more is denoted as AA) | A (a compound having 10 or more and less than 20 is denoted as A) | 10.2 | 0.14 |
| CCO[C@@H]1C[C@H]2C(=O)NC3(CCC3)C(=O)N(C)[C@@H](C3CCCC3)C(=O)N(C)[C@H](C(=O)N3CCOCC3)CC(=O)N(C)[C@@H](CC(C)C)C(=O)N[C@@H]([C@@H](C)CC)C(=O)N(C)CC(=O)N(C)[C@H]3C/C=C\CCN(C3=O)[C@@H](Cc3ccc(C(F)(F)F)cc3)C(=O)N(C)CC(=O)N[C@@H](CCc3cc(F)c(C(F)(F)F)c(F)c3)C(=O)N2C1 [PP1282] | A (a compound having 10 or more and less than 20 is denoted as A) | A (a compound having 10 or more and less than 20 is denoted as A) | 12.3 | 0.2 |
| CCO[C@@H]1C[C@H]2C(=O)NC3(CCC3)C(=O)N(C)[C@@H](C3CCCC3)C(=O)N(C)[C@H](C(=O)N3CCOCC3)CC(=O)N(C)[C@@H](CC3CC3)C(=O)N[C@@H]([C@@H](C)CC)C(=O)N(C)CC(=O)N(C)[C@H]3C/C=C\CCN(C3=O)[C@@H](Cc3ccc(C(F)(F)F)cc3)C(=O)N(C)CC(=O)N[C@@H](CCc3cc(F)c(C(F)(F)F)c(F)c3)C(=O)N2C1 [PP1283] | AA (a compound having 20 or more is denoted as AA) | A (a compound having 10 or more and less than 20 is denoted as A) | 42.6 | 0.2 |
| CCO[C@@H]1C[C@H]2C(=O)NC3(CCC3)C(=O)N(C)[C@@H](C3CCCC3)C(=O)N(C)[C@H](C(=O)N3CCOCC3)CC(=O)N(C)[C@@H](C)C(=O)N[C@@H]([C@@H](C)CC)C(=O)N(C)CC(=O)N(C)[C@H]3C/C=C\CCN(C3=O)[C@@H](Cc3ccc(C(F)(F)F)cc3)C(=O)N(C)CC(=O)N[C@@H](CCc3cc(F)c(C(F)(F)F)c(F)c3)C(=O)N2C1 [PP1284] | AA (a compound having 20 or more is denoted as AA) | A (a compound having 10 or more and less than 20 is denoted as A) | 54.8 | 0.12 |
| CCO[C@@H]1C[C@H]2C(=O)NC3(CCC3)C(=O)N(C)[C@@H](C3CCCC3)C(=O)N(C)[C@H](C(=O)N3CCOCC3)CC(=O)N(C)[C@@H](CC(F)F)C(=O)N[C@@H]([C@@H](C)CC)C(=O)N(C)CC(=O)N(C)[C@H]3C/C=C\CCN(C3=O)[C@@H](Cc3ccc(C(F)(F)F)cc3)C(=O)N(C)CC(=O)N[C@@H](CCc3cc(F)c(C(F)(F)F)c(F)c3)C(=O)N2C1 [PP1285] | AA (a compound having 20 or more is denoted as AA) | A (a compound having 10 or more and less than 20 is denoted as A) | 24.6 | 0.15 |
| CCO[C@@H]1C[C@H]2C(=O)NC3(CCC3)C(=O)N(C)[C@@H](C(CC)CC)C(=O)N(C)[C@H](C(=O)N3CCOCC3)CC(=O)N(C)[C@@H](CC)C(=O)N[C@@H]([C@@H](C)CC)C(=O)N(C)CC(=O)N(C)[C@H]3C/C=C\CCN(C3=O)[C@@H](Cc3ccc(C(F)(F)F)cc3)C(=O)N(C)CC(=O)N[C@@H](CCc3cc(F)c(C(F)(F)F)c(F)c3)C(=O)N2C1 [PP1286] | AA (a compound having 20 or more is denoted as AA) | A (a compound having 10 or more and less than 20 is denoted as A) | 58.8 | 0.65 |
| CCO[C@@H]1C[C@H]2C(=O)NC3(CCC3)C(=O)N(C)[C@@H](C(CC)CC)C(=O)N(C)[C@H](C(=O)N3CCOCC3)CC(=O)N(C)[C@@H](CC(C)C)C(=O)N[C@@H]([C@@H](C)CC)C(=O)N(C)CC(=O)N(C)[C@H]3C/C=C\CCN(C3=O)[C@@H](Cc3ccc(C(F)(F)F)cc3)C(=O)N(C)CC(=O)N[C@@H](CCc3cc(F)c(C(F)(F)F)c(F)c3)C(=O)N2C1 [PP1287] | AA (a compound having 20 or more is denoted as AA) | A (a compound having 10 or more and less than 20 is denoted as A) | 49.7 | 0.56 |
| CCC[C@H]1C(=O)N[C@@H]([C@@H](C)CC)C(=O)N(C)CC(=O)N(C)[C@H]2C/C=C\CCN(C2=O)[C@@H](Cc2ccc(C(F)(F)F)cc2)C(=O)N(C)CC(=O)N[C@@H](CCc2cc(F)c(C(F)(F)F)c(F)c2)C(=O)N2C[C@H](OCC)C[C@H]2C(=O)NC2(CCC2)C(=O)N(C)[C@@H](C2CCCC2)C(=O)N(C)[C@H](C(=O)N2CCOCC2)CC(=O)N1C [PP1288] | AA (a compound having 20 or more is denoted as AA) | A (a compound having 10 or more and less than 20 is denoted as A) | 22.2 | 0.18 |
| CCO[C@@H]1C[C@H]2C(=O)NC3(CCC3)C(=O)N(C)[C@@H](C3CCCC3)C(=O)N(C)[C@H](C(=O)N3CCCCC3)CC(=O)N(C)[C@@H](CC)C(=O)N[C@@H]([C@@H](C)CC)C(=O)N(C)CC(=O)N(C)[C@H]3C/C=C\CCN(C3=O)[C@@H](Cc3ccc(C(F)(F)F)cc3)C(=O)N(C)CC(=O)N[C@@H](CCc3cc(F)c(C(F)(F)F)c(F)c3)C(=O)N2C1 [PP1289] | AA (a compound having 20 or more is denoted as AA) | A (a compound having 10 or more and less than 20 is denoted as A) | 34.7 | 0.17 |
| CCO[C@@H]1C[C@H]2C(=O)NC3(CCC3)C(=O)N(C)[C@@H](C3CCCC3)C(=O)N(C)[C@H](C(=O)N3CCCCC3)CC(=O)N(C)[C@@H](CC(C)C)C(=O)N[C@@H]([C@@H](C)CC)C(=O)N(C)CC(=O)N(C)[C@H]3C/C=C\CCN(C3=O)[C@@H](Cc3ccc(C(F)(F)F)cc3)C(=O)N(C)CC(=O)N[C@@H](CCc3cc(F)c(C(F)(F)F)c(F)c3)C(=O)N2C1 [PP1290] | AA (a compound having 20 or more is denoted as AA) | A (a compound having 10 or more and less than 20 is denoted as A) | 15.4 | 0.24 |
| CCO[C@@H]1C[C@H]2C(=O)NC3(CCC3)C(=O)N(C)[C@@H](C3CCCC3)C(=O)N(C)[C@H](C(=O)N3CCCCC3)CC(=O)N(C)[C@@H](CC3CC3)C(=O)N[C@@H]([C@@H](C)CC)C(=O)N(C)CC(=O)N(C)[C@H]3C/C=C\CCN(C3=O)[C@@H](Cc3ccc(C(F)(F)F)cc3)C(=O)N(C)CC(=O)N[C@@H](CCc3cc(F)c(C(F)(F)F)c(F)c3)C(=O)N2C1 [PP1291] | A (a compound having 10 or more and less than 20 is denoted as A) | A (a compound having 10 or more and less than 20 is denoted as A) | 16.7 | 0.24 |
